Measurements reported in PMC3577726 (PLoS ONE, 2013).
No end group written: not given here.

Tests used:
[1] = test system: Male C57BL/6J mice; experiment: Serum insulin concentration after intraperitoneal or oral treatment, with or without sitagliptin and exendin(9–39); format: in vivo, mouse; settings: for Serum insulin concentration, i.p. 7 µg/kg alone / Serum insulin concentration, oral 10 µg/kg: blood 20 min later; for Serum insulin concentration, i.p. 7 µg/kg alone: four to six mice; for Serum insulin concentration, oral 10 µg/kg: 10 µg/kg orally, with or without sitagliptin and exendin(9–39)
Protocol: (§1) Male C57BL/6J mice (Jackson Laboratory, Bar Harbor, ME) were maintained in a specific pathogen-free facility under a 12 h-light, 12 h-dark cycle and were moved to a conventional facility for experiments at 6 to 8 weeks of age. All animal experiments were approved by the animal ethics committee of Kyushu University. Animals were anesthetized with sevoflurane and blood (maximally up to 100 µl) was collected from the orbital plexus of mice treated as indicated. Dipeptidyl peptidase (DPP)-IV inhibitor (Merck-Millipore, Billerica, MA) was added to the samples to a final concentration of 100 µM.
(B, C) Mice deprived of food for 5 h (blood glucose level, 103.5 mg/dl) were administered sitagliptin (1 µg/kg) or saline orally and then 30 min later were treated with ucOC or GlaOC intraperitoneally (7 µg/kg) (B) or orally (10 µg/kg) (C) in combination with intraperitoneal injection of exendin(9–39) (25 nmol/kg) or saline. […] All data are means ± SEM for four to six mice. *P < 0.05, **P < 0.01, †P = 0.06 versus control (open bar) or for the indicated comparisons (Student's t test).

[2] = test system: Male C57BL/6J mice; experiment: Serum GLP-1 concentration after oral administration of OC; format: in vivo, mouse; settings: mice fasted 5 h, no sitagliptin pretreatment, blood 20 min later, five to seven mice
Protocol: (§2) Figure 3 Effect of intraperitoneal or oral administration of OC on serum GLP-1 concentration. (A) Mice were deprived of food for 5 h and then injected intraperitoneally with saline (control) or the indicated doses of recombinant ucOC, of GlaOC. Blood was collected 20 min later for determination of the serum concentration of GLP-1. Part of mice was orally administered with sitagliptin (1 µg/kg) 30 min before injection of OC. (B) Mice deprived of food for 5 h were treated orally with saline (control) or the indicated doses of ucOC or GlaOC. Blood samples collected 20 min later were assayed for serum GLP-1 concentration. All data are means ± SEM for five to seven mice. *P < 0.05, **P < 0.01 versus control (Student's t test).

[3] = test system: Male C57BL/6J mice
Protocol: as §1

[4] = test system: STC-1 cells; experiment: GLP-1 secretion from STC-1 cells (ELISA of culture supernatant); format: cell-based, mouse
Protocol: STC-1 cells (kindly provided from Dr. G. Tsujimoto, Kyoto University), a mouse enteroendocrine cell line were cultured under a humidified atmosphere of 5% CO2 at 37 °C in Dulbecco's modified Eagle's medium supplemented with 15% horse serum, 5% fetal bovine serum, penicillin (100 U/ml), and streptomycin (0.1 mg/ml). The cells were routinely passaged at 80 to 90% confluence.
STC-1 cells in a six-well plate were washed three times and then incubated with recombinant mouse ucOC or with GlaOC (ANA Spec, Fremont, CA) in Hanks' balanced salt solution for 60 min at 37 °C. The culture supernatants were then assayed for GLP-1 with ELISA kit (Shibayagi, Gunma, Japan).
Figure 2 OC-induced GLP-1 secretion in STC-1 cells. STC-1 cells were incubated for 60 min with vehicle (control) or the indicated concentrations of ucOC, GlaOC, or PMA. Data are expressed relative to the control value (33.1 pg per 1 × 10^5 cells) and are means ± SEM from four to eight independent experiments. *P < 0.05, **P < 0.01 versus control (Student's t test).

[5] = test system: Male C57BL/6J mice; experiment: Serum GLP-1 concentration after intraperitoneal administration of OC; format: in vivo, mouse
Protocol: as §2

[6] = mouse, in vivo
Protocol: Serum OC concentrations were measured with ELISA kit for mouse OC (Biomedical Technologies), which is formulated for both ucOC and GlaOC, with the two forms being discriminated with the use of hydroxyapatite. Serum (50 µl) was thus mixed with 10 mg of hydroxyapatite (Sigma-Aldrich) and rotated at 4 °C for 1 h, after which the hydroxyapatite (and bound GlaOC) was removed by centrifugation and the supernatant was assayed for ucOC.
Figure 5 Serum levels of total OC and ucOC after intraperitoneal or oral administration of ucOC or GlaOC. Serum levels of total OC (A) or ucOC (B) were measured 20 min after administration of ucOC or GlaOC at a dose of 7 µg/kg intraperitoneally (i.p.) or 10 µg/kg orally (p.o.) in mice that had been deprived of food for 5 h; black circles indicate values for individual mice, with the horizontal bars representing the mean values. *P < 0.05 versus saline-treated animals [one-way ANOVA followed by either Dunnett's multiple-comparison test (A) or Tukey's HSD post hoc test (B)].

[7] = Absorption of 125I-labeled ucOC into the systemic circulation (blood radioactivity); format: in vivo, mouse; settings: n = 5 each
Protocol: An expression vector for a glutathione S-transferase-ucOC fusion protein was constructed by introduction of mouse OC cDNA into the vector pGEX-4T-1 (GE Healthcare, Buckinghamshire, UK). The fusion protein was produced in bacteria and purified with glutathione-Sepharose beads (GE Healthcare) according to standard procedures. The final washes of the beads were performed with a buffer containing 0.1% Triton X-114 (Sigma-Aldrich, St. Louis, MO) and then with the same buffer without detergent in order to remove endotoxin [17]. […] The purity of the ucOC preparation was assessed by sodium dodecyl sulfate-polyacrylamide gel electrophoresis with Tris-Tricine and staining with Coomassie blue, and the concentration and integrity of the protein were determined with an enzyme-linked immunosorbent assay (ELISA) kit for mouse OC (Biomedical Technologies, Stoughton, MA). […]
Figure 6 Absorption of ^125I-labeled ucOC into the systemic circulation. Mice were administered ^125I-labeled ucOC (5 µg/kg, 4,000 to 6,000 cpm) intraperitoneally (circles, n = 5) or orally (squares, n = 5), and blood was collected into tubes containing 5 mM EDTA (to prevent coagulation) at 30 and 60 min thereafter for measurement of radioactivity. The percentage of the administered radioactivity present in the circulation was calculated assuming a total blood volume of 2 ml. […]

[8] = cited from earlier work

## N[C@@H](CC(=O)N1CCn2c(nnc2C(F)(F)F)C1)Cc1cc(F)c(F)cc1F [Sitagliptin, sitagliptin, reference compound]
[1]; mice fasted 5 h, sitagliptin 1 µg/kg orally
  Serum insulin concentration, sitagliptin alone: small increase in the serum insulin concentration

## GlaOC: γ-carboxylated form of the bone-derived protein osteocalcin (ANA Spec) (YLGASVPSPDPLEPTREQCELNPACDELSDQYGLKTAYKRIYGITI; ends and bridges not checked; also: γ-carboxylated on three glutamic acid residues (places not given here); UniProt P86546 50-95, looked up)
[2]
  Serum GLP-1 concentration after oral administration: a similar effect was apparent
[3]; fasted mice, data not shown
  Serum GLP-1 level after tail vein injection of GlaOC: no effect
  Serum insulin level after tail vein injection of GlaOC: no effect
[4]; 60 min
  Effect on GLP-1 secretion at the concentrations examined: did not affect GLP-1 secretion
[5]; mice fasted 5 h, oral sitagliptin 1 µg/kg 30 min before, i.p., blood 20 min later
  Serum GLP-1 level, i.p., sitagliptin-pretreated mice: did not increase the serum GLP-1 level
[1]; mice fasted 5 h, 7 µg/kg i.p.
  Serum insulin concentration, i.p. 7 µg/kg alone: no effect on serum insulin
[1]; mice fasted 5 h
  Serum insulin concentration, oral 10 µg/kg: tended to increase serum insulin, although this effect did not achieve statistical significance

## Osteocalcin (YLGASVPSPDPLEPTREQCELNPACDELSDQYGLKTAYKRIYGITI; ends and bridges not checked; cysteine pairing not given here; UniProt P86546 50-95, looked up) [osteocalcin, a peptide composed of 46 amino acids; form (uc- or Gla-) not specified at the place]
[6]
  Absorption rate at fivefold higher oral dose: 0.8%
  Absorption rate at twofold higher oral dose: 2%

## ^125I-labeled ucOC: ucOC iodinated with Na^125I as GST fusion, released with thrombin (YLGASVPSPDPLEPTREQCELNPACDELSDQYGLKTAYKRIYGITI; ends and bridges not checked; also: 125I label, site not given here; UniProt P86546 50-95, looked up)
[7]; 5 µg/kg (4,000 to 6,000 cpm) i.p. or orally, assuming total blood volume of 2 ml
  Gross absorption, % of the administered radioactivity in the circulation at 30 min: 2 to 8%
[7]; 5 µg/kg i.p. or orally
  Blood radioactivity at 60 min compared with 30 min: increased further or decreased to a small extent

## calcitonin
[8]
  Rate of absorption from the intestine into the bloodstream: ~5%

## exendin(9–39) [reference compound]
[1]; exendin(9–39) 25 nmol/kg i.p. 30 min before exendin-4 25 nmol/kg i.p.
  Antagonism of the exendin-4-induced increase in serum insulin: sensitive to prior injection of exendin(9–39)
[1]; sitagliptin orally, exendin(9–39) i.p., data not shown
  Effect of exendin(9–39) on the sitagliptin-induced increase in serum insulin: blocked by administration of exendin(9–39)

## uncarboxylated osteocalcin (YLGASVPSPDPLEPTREQCELNPACDELSDQYGLKTAYKRIYGITI; ends and bridges not checked; cysteine pairing not given here; UniProt P86546 50-95, looked up) [ucOC, recombinant mouse uncarboxylated osteocalcin, cleaved from a glutathione S-transferase fusion protein produced in bacteria]
[2]
  Serum GLP-1 concentration after oral administration: increased the serum concentration of GLP-1 in a dose-dependent manner
[3]; 30 ng per animal, tail vein, mice fasted 5 h
  Serum concentration of GLP-1 at 30 min after i.v. injection: further increased
[3]; 30 ng per animal, tail vein, mice fasted 5 h, 15 and 30 min
  Serum concentration of insulin after i.v. injection: increased as well
[3]; 30 ng per animal, tail vein, mice fasted 5 h, four to six mice
  Serum concentration of GLP-1 at 15 min after i.v. injection: significantly increased
[3]; 300 ng per animal i.v., fasted mice, data not shown
  Serum insulin concentration after i.v. 300 ng: no effect on the serum insulin concentration
[3]; mouse, in vivo, iv
  Blood concentration after i.v. 300 ng: 0.028 µM
  Expected initial serum concentration after i.v. 30 ng: ~30 ng/mL
  Initial concentration in blood after i.v. 30 ng: 2.7 nM
[4]; 60 min, 30 ng/ml
  Effect on GLP-1 secretion at 30 ng/ml: no longer apparent
[4]; >10 ng/ml
  Effect on GLP-1 secretion at concentrations of >10 ng/ml: markedly diminished
[5]; mice fasted 5 h, blood 20 min after i.p. injection, no DPP-IV inhibitor pretreatment, five to seven mice
  Serum GLP-1 concentration, i.p., without sitagliptin: increase in the serum concentration of GLP-1, but with only statistically insignificance
[5]; mice fasted 5 h, oral sitagliptin 1 µg/kg 30 min before, 7 µg/kg i.p., blood 20 min later
  Serum GLP-1 concentration, i.p. 7 µg/kg, sitagliptin-pretreated: significant increase
[5]; mice fasted 5 h, oral sitagliptin 1 µg/kg 30 min before, 10 µg/kg i.p., blood 20 min later
  Serum GLP-1 concentration, i.p. 10 µg/kg, sitagliptin-pretreated: no such effect
[5]; mice, i.p. >7 µg/kg
  Effect on GLP-1 secretion at intraperitoneal doses of >7 µg/kg: markedly diminished
[1]; mice fasted 5 h, 7 µg/kg i.p.
  Serum insulin concentration, i.p. 7 µg/kg alone: significant increase
[1]; mice fasted 5 h
  Serum insulin concentration, oral 10 µg/kg: Essentially identical results
[1]; oral sitagliptin 1 µg/kg 30 min before 7 µg/kg i.p.
  Serum insulin increase, i.p. 7 µg/kg with sitagliptin pretreatment: enhanced by sitagliptin
[1]; oral sitagliptin 1 µg/kg, 7 µg/kg i.p., exendin(9–39) 25 nmol/kg i.p.
  Serum insulin increase, i.p. 7 µg/kg with sitagliptin and exendin(9–39): abolished by exendin(9–39)
